Results reported in patent US20240174618A1, “SUBSTITUTED (2-HETEROARYLOXYPHENYL)SULFONATES, SALTS THEREOF AND THEIR USE AS HERBICIDAL AGENTS” (Bayer Aktiengesellschaft, priority 2021, published 2024).

Columns and labels:
Type in all cases: in vivo
Stellaria media (STEME) [1] = assay: B. Herbicidal post-emergence efficacy, STEME
How it was run: (§1)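 Post-emergence greenhouse test: one-leaf-stage plants, compound (WP/EC, +0.5% additive, 600 L/ha water, ≤1280 g/ha) applied to green parts; % efficacy scored visually vs untreated after ~3 wk; 100% = plants died.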

[2] = system: Digitaria sanguinalis (DIGSA); assay: A. Herbicidal pre-emergence efficacy, DIGSA; details: scored visually after about 3 weeks vs untreated controls
How it was run: (§2)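 Pre-emergence soil-surface spray in sandy loam pots, WP/EC in water plus 0.5% additive, 600 L/ha. Visual % damage rating after about 3 weeks in greenhouse vs. untreated; 0% = control-like, 100% = dead plants. Rates up to 1280 g/ha.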

Stellaria media (STEME) [3] = assay: A. Herbicidal pre-emergence efficacy, STEME
How it was run: as §2

[4] = system: Echinochloa crus-galli (ECHCG); assay: B. Herbicidal post-emergence efficacy, ECHCG; details: 1280 g/ha, rated visually after about 3 weeks
How it was run: as §1

Lolium rigidum (LOLRI) = assay: A. Herbicidal pre-emergence efficacy, LOLRI
From the text: (§3) Seeds of mono- and dicotyledonous weed plants were placed in plastic pots in sandy loam soil (doubly sown with one species each of mono- or dicotyledonous weed plants per pot) and covered with soil. The compounds of the invention, formulated in the form of wettable powders (WP) or as emulsion concentrates (EC), were then applied onto the surface of the covering soil as aqueous suspension or emulsion with addition of 0.5% additive at a water application rate of 600 liters per hectare (converted). After the treatment, the pots were placed in a greenhouse and kept under good growth conditions for the test plants. After about 3 weeks, the efficacy of the preparations was scored visually in comparison with untreated controls as percentages.
(§4) For example, • 100% efficacy=plants have died, • 0% efficacy=like untreated control plants.
(§5) Tables A1a to A12c below show the effects of selected compounds of the general formula (I) according to table 1 on various harmful plants at an application rate corresponding to 1280 g/ha or less, which were obtained by the experimental procedure mentioned above.

[5] = system: Echinochloa crus-galli (ECHCG); assay: A. Herbicidal pre-emergence efficacy, ECHCG; details: scored visually after about 3 weeks vs untreated controls
How it was run: as §2

[6] = system: Abutilon theophrasti (ABUTH); assay: A. Herbicidal pre-emergence efficacy, ABUTH; details: scored visually after about 3 weeks vs untreated controls
How it was run: as §2

[7] = system: Amaranthus retroflexus (AMARE); assay: A. Herbicidal pre-emergence efficacy, AMARE
How it was run: as §2

Setaria viridis (SETVI) [8] = assay: A. Herbicidal pre-emergence efficacy, SETVI
How it was run: as §2

Poa annua (POAAN) [9] = assay: B. Herbicidal post-emergence efficacy, POAAN
How it was run: as §1

Kochia scoparia (KCHSC) [10] = assay: B. Herbicidal post-emergence efficacy, KCHSC; details: for Post-emergence efficacy against KCHSC: 1280 g/ha; for Post-emergence efficacy against KCHSC in %: rated visually after about 3 weeks
How it was run: as §1

[11] = system: Digitaria sanguinalis (DIGSA); assay: B. Herbicidal post-emergence efficacy, DIGSA; details: 1280 g/ha, rated visually after about 3 weeks
Experimental: (§6) Seeds of mono- and dicotyledonous weed plants were placed in plastic pots in sandy loam soil (doubly sown with in each case one species of mono- or dicotyledonous weed plants per pot), covered with soil and cultivated in a greenhouse under controlled growth conditions. 2 to 3 weeks after sowing, the test plants were treated at the one-leaf stage. The compounds of the invention, formulated in the form of wettable powders (WP) or as emulsion concentrates (EC), were applied onto the green parts of the plants as aqueous suspension or emulsion with addition of 0.5% additive at a water application rate of 600 liters per hectare (converted). After the test plants had been kept in the greenhouse under optimum growth conditions for about 3 weeks, the activity of the preparations was rated visually in comparison to untreated controls.
(§7) For example, • 100% efficacy=plants have died, • 0% efficacy=like untreated control plants
(§8) Tables B1a to B12c below show the effects of selected inventive compounds of the general formula (I) according to table 1 on various harmful plants at an application rate corresponding to 1280 g/ha or less, which were obtained by the experimental procedure mentioned above.

Veronica persica (VERPE) [12] = assay: B. Herbicidal post-emergence efficacy, VERPE
How it was run: as §1

[13] = system: Amaranthus retroflexus (AMARE); assay: B. Herbicidal post-emergence efficacy, AMARE
How it was run: as §1

Poa annua (POAAN) [14] = assay: A. Herbicidal pre-emergence efficacy, POAAN
How it was run: as §2

[15] = system: Abutilon theophrasti (ABUTH); assay: B. Herbicidal post-emergence efficacy, ABUTH; details: rated visually after about 3 weeks
How it was run: as §1

[16] = system: Matricaria inodora (MATIN); assay: A. Herbicidal pre-emergence efficacy, MATIN
From the text: as §3, §4, §5

Veronica persica (VERPE) [17] = assay: A. Herbicidal pre-emergence efficacy, VERPE
How it was run: as §2

Setaria viridis (SETVI) [18] = assay: B. Herbicidal post-emergence efficacy, SETVI; details: 1280 g/ha
Experimental: as §6, §7, §8

[19] = system: Alopecurus myosuroides (ALOMY); assay: A. Herbicidal pre-emergence efficacy, ALOMY; details: 1280 g/ha; scored visually after about 3 weeks vs untreated controls
From the text: as §3, §4, §5

Kochia scoparia (KCHSC) [20] = assay: A. Herbicidal pre-emergence efficacy, KCHSC; details: pre-emergence
How it was run: as §2

[21] = pre-emergence, dosage 1280 g/ha

Row | Structure (SMILES) | Post-emergence efficacy against STEME (Stellaria media (STEME) [1]; 80 g/ha) [%] | Post-emergence efficacy against STEME (Stellaria media (STEME) [1]; 320 g/ha) [%] | Post-emergence efficacy against STEME (Stellaria media (STEME) [1]; 1280 g/ha) [%] | Pre-emergence efficacy against DIGSA ([2]; 320 g/ha) [%] | Pre-emergence efficacy against DIGSA ([2]; 1280 g/ha) [%] | Pre-emergence efficacy against STEME (Stellaria media (STEME) [3]; dosage 1280 g/ha) [%] | Post-emergence efficacy against ECHCG in % [4] [%] | Pre-emergence efficacy against LOLRI (Lolium rigidum (LOLRI); dosage 1280 g/ha) [%] | Pre-emergence efficacy against ECHCG ([5]; 1280 g/ha) [%] | Pre-emergence efficacy against ABUTH ([6]; 1280 g/ha) [%] | Pre-emergence efficacy against AMARE in % ([7]; 320 g/ha) [%] | Pre-emergence efficacy against AMARE in % ([7]; 1280 g/ha) [%] | Pre-emergence efficacy against SETVI (Setaria viridis (SETVI) [8]; dosage 320 g/ha) [%] | Pre-emergence efficacy against SETVI (Setaria viridis (SETVI) [8]; dosage 1280 g/ha) [%] | Post-emergence efficacy against KCHSC (Kochia scoparia (KCHSC) [10]) [%] | Pre-emergence efficacy against POAAN (Poa annua (POAAN) [14]; dosage 320 g/ha) [%] | Pre-emergence efficacy against POAAN (Poa annua (POAAN) [14]; dosage 1280 g/ha) [%] | Post-emergence efficacy against ABUTH in % ([15]; 1280 g/ha) [%] | Pre-emergence efficacy against MATIN [16, 21] [%] | Pre-emergence efficacy against VERPE in % (Veronica persica (VERPE) [17]; 1280 g/ha) [%] | further results
1 | Cc1cccc(Oc2ncc(Br)cn2)c1OS(=O)(=O)CCC(F)(F)F [Example I-33] | 90 | 100 | 100 | 100 | 100 | 100 | 100 | 100 | 100 | 100 | 100 | 100 | 100 | 100 | 100 | 100 | 100 | 100 | 90 | 100 | Pre-emergence efficacy against STEME (Stellaria media (STEME) [3]; dosage 80 g/ha): 100%; Pre-emergence efficacy against STEME (Stellaria media (STEME) [3]; dosage 320 g/ha): 100%; Pre-emergence efficacy against ECHCG ([5]; 320 g/ha): 100%; Pre-emergence efficacy against ABUTH ([6]; 320 g/ha): 100%; Pre-emergence efficacy against AMARE in % ([7]; 80 g/ha): 90%; Post-emergence efficacy against POAAN (Poa annua (POAAN) [9]; 320 g/ha): 90%; Post-emergence efficacy against POAAN (Poa annua (POAAN) [9]; 1280 g/ha): 100%; Post-emergence efficacy against DIGSA in % [11]: 90%; Post-emergence efficacy against VERPE (Veronica persica (VERPE) [12]; 80 g/ha): 100%; Post-emergence efficacy against VERPE (Veronica persica (VERPE) [12]; 320 g/ha): 100%; Post-emergence efficacy against VERPE (Veronica persica (VERPE) [12]; 1280 g/ha): 100%; Post-emergence efficacy against AMARE ([13]; 320 g/ha): 90%; Post-emergence efficacy against AMARE ([13]; 1280 g/ha): 100%; Post-emergence efficacy against ABUTH in % ([15]; 320 g/ha): 90%; Pre-emergence efficacy against VERPE in % (Veronica persica (VERPE) [17]; 320 g/ha): 100%; Pre-emergence efficacy against VERPE (Veronica persica (VERPE) [17]; dosage 80 g/ha): 90%; Post-emergence efficacy against SETVI (Setaria viridis (SETVI) [18]): 100%
2 | Cc1cccc(Oc2ncc(Br)cn2)c1OS(=O)(=O)CCCC(F)(F)F [Example I-35] | 90 | 100 | 100 | 90 | 100 | 100 | 90 | 100 | 100 | 100 | 90 | 100 | 100 | 100 | 100 | 100 | 100 | 100 | 100 | 100 | Post-emergence efficacy against POAAN (Poa annua (POAAN) [9]; 1280 g/ha): 90%; Post-emergence efficacy against VERPE (Veronica persica (VERPE) [12]; 80 g/ha): 90%; Post-emergence efficacy against VERPE (Veronica persica (VERPE) [12]; 320 g/ha): 90%; Post-emergence efficacy against VERPE (Veronica persica (VERPE) [12]; 1280 g/ha): 100%; Post-emergence efficacy against AMARE ([13]; 320 g/ha): 90%; Post-emergence efficacy against AMARE ([13]; 1280 g/ha): 100%; Pre-emergence efficacy against ALOMY [19]: 90%; Post-emergence efficacy against ABUTH in % ([15]; 320 g/ha): 100%; Pre-emergence efficacy against KCHSC (Kochia scoparia (KCHSC) [20]; dosage 1280 g/ha): 90%; Pre-emergence efficacy against VERPE in % (Veronica persica (VERPE) [17]; 320 g/ha): 90%
3 | O=S(=O)(CCCC(F)(F)F)Oc1c(Br)cccc1Oc1ncc(F)cn1 [Example I-44] | 100 | 100 | 100 | 100 | 100 | 100 | 100 | 100 | 100 | 100 | 100 | 100 | 100 | 100 | 100 | 100 | 100 | 100 | 100 | 100 | Pre-emergence efficacy against STEME (Stellaria media (STEME) [3]; dosage 80 g/ha): 100%; Pre-emergence efficacy against STEME (Stellaria media (STEME) [3]; dosage 320 g/ha): 100%; Pre-emergence efficacy against LOLRI (Lolium rigidum (LOLRI); dosage 320 g/ha): 100%; Pre-emergence efficacy against ECHCG ([5]; 320 g/ha): 100%; Pre-emergence efficacy against AMARE in % ([7]; 80 g/ha): 100%; Post-emergence efficacy against KCHSC in % (Kochia scoparia (KCHSC) [10]; 80 g/ha): 100%; Post-emergence efficacy against KCHSC in % (Kochia scoparia (KCHSC) [10]; 320 g/ha): 100%; Pre-emergence efficacy against ALOMY [19]: 100%; Post-emergence efficacy against ABUTH in % ([15]; 320 g/ha): 90%; Pre-emergence efficacy against KCHSC (Kochia scoparia (KCHSC) [20]; dosage 320 g/ha): 100%; Pre-emergence efficacy against KCHSC (Kochia scoparia (KCHSC) [20]; dosage 1280 g/ha): 100%; Pre-emergence efficacy against MATIN ([16]; 320 g/ha, scored visually after about 3 weeks vs untreated controls): 90%; Pre-emergence efficacy against VERPE in % (Veronica persica (VERPE) [17]; 320 g/ha): 100%
4 | O=S(=O)(CC1CCCO1)Oc1c(F)cccc1Oc1ncc(Cl)cn1 (stereo not drawn) [Example I-54] | – | – | 90 | 90 | 100 | 100 | 90 | 90 | 100 | 100 | 100 | 100 | 100 | 100 | 90 | 90 | 100 | 90 | 90 | 90 | Pre-emergence efficacy against STEME (Stellaria media (STEME) [3]; dosage 320 g/ha): 90%; Pre-emergence efficacy against ECHCG ([5]; 320 g/ha): 100%; Pre-emergence efficacy against ABUTH ([6]; 320 g/ha): 90%; Post-emergence efficacy against POAAN (Poa annua (POAAN) [9]; 1280 g/ha): 90%; Post-emergence efficacy against DIGSA in % [11]: 90%; Post-emergence efficacy against VERPE (Veronica persica (VERPE) [12]; 80 g/ha): 90%; Post-emergence efficacy against VERPE (Veronica persica (VERPE) [12]; 320 g/ha): 90%; Post-emergence efficacy against VERPE (Veronica persica (VERPE) [12]; 1280 g/ha): 90%; Post-emergence efficacy against AMARE ([13]; 1280 g/ha): 90%; Pre-emergence efficacy against KCHSC (Kochia scoparia (KCHSC) [20]; dosage 1280 g/ha): 90%; Post-emergence efficacy against SETVI (Setaria viridis (SETVI) [18]): 90%
